One series can be described thus: Bioavailability studies. Type of series: in vivo, Male mice (C57BL/6 or CD1) or Wistar rats. The following applies: male, plasma; single intravenous dose 1 mg/kg and single oral dose 10 mg/kg; species per compound not given. The protocol:
Male mice (C57BL/6 or CD1) or Wistar rats of 8-9 weeks old were used. For each test compound, two groups of 3 animals each were used. One group was administered a single intravenous dose of 1 mg/kg (vehicle 100% DMSO) through the tail vein and the other group was administered a single oral dose of 10 mg/kg through gavage needle. The group that was administered an oral dose was fasted overnight. Blood samples were collected after 0.083, 0.25, 0.5, 1, 2, 4, 6, 8 and 24 hours following intravenous administration, and after 0.25, 0.5, 1, 2, 4, 6, 8 and 24 hours following oral administration. Blood samples were taken from saphenous vein. 0.2% EDTA was used as the anticoagulant. The samples were analyzed by a discovery grade bioanalytical method developed for the estimation of test compound in plasma, using an LC-MS/MS system.

The next series addresses T1, Human LBAT (Homo sapiens, UniProt Q14973).
T1 construct: expressed in transfected cells; kept under Geneticin selection
T1 sequence (Q14973 1-349): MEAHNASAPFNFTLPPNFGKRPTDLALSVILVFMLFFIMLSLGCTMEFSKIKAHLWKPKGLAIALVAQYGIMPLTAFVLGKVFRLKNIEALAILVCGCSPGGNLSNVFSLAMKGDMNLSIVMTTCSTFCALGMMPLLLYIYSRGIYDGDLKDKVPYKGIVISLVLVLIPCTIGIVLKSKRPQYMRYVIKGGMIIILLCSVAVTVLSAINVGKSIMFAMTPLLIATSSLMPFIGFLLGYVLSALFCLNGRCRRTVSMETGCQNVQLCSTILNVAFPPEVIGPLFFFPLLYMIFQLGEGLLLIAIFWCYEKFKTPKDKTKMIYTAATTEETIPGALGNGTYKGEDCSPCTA
In words: LBAT (h/m) assay, human LBAT-overexpressing cells, 3H-taurocholic acid uptake. The following applies: 0.3 μM 3H-taurocholic acid and 7.5 μM cold taurocholic acid, 20 minutes, read-out: hLBAT IC50. It is filed as cell-based. The protocol: LBAT (h/m) Assay Protocol
20,000 cells (Human or Mouse LBAT-overexpressing cells) were seeded in 96-wells plate (Corning CLS3809) in 100 μL MEM-alpha medium (Gibco 12571-063) supplemented with 10% FBS (Gibco 10438026) containing Geneticin (Gibco 10131-027) (1 mg/mL) and incubated at 37° C. in 5% CO2 for 24 hours. After incubation, media was decanted from the wells and cells were washed two times with 300 μL of basal MEM-alpha medium (FBS-free). After decanting basal MEM-alpha medium each time, plates were tapped against paper towel to ensure maximum removal of residual media.
For human LBAT, incubation mix was prepared by adding test inhibitor dilutions (3-fold serial dilution in DMSO (Sigma D2650), 10 points) in MEM-alpha (without FBS) containing 0.3 μM 3H-taurocholic acid (ARC ART-1368) and 7.5 μM cold taurocholic acid (Sigma T4009) (maintaining 0.2% final DMSO concentration). For mouse LBAT, incubation mix was prepared by adding test inhibitor dilutions (3-fold serial dilution in DMSO, 10 points) in MEM-alpha (without FBS) containing 0.3 μM 3H-taurocholic acid and 25 μM cold taurocholic acid maintaining 0.2% final DMSO concentration).
50 μL of incubation mix containing test inhibitors was then added to the wells (in duplicate) and the plates were incubated for 20 minutes in a CO2 incubator at 37° C. After incubation, the reaction was stopped by keeping the plates on ice water mix for 2-3 minutes and then the incubation mix was aspirated completely from the wells. The wells were washed two times with 250 μL of chilled unlabelled 1 mM taurocholic acid dissolved in HEPES (Gibco 15630080)-buffered (10 mM) HBSS (Gibco 14175079) (pH 7.4). The plates were tapped against a paper towel after every wash to ensure maximum removal of blocking buffer.
100 μL of MicroScint-20 (PerkinElmer 6013621) was added to the wells and kept overnight at room temperature before reading the plates in TopCount NXT™ Microplate Scintillation and Luminescence Counter from PerkinElmer under 3H Test protocol (set at 120 seconds reading time per well, with normal plate orientation).
Preparation of Test Compound Dilutions
All test compounds were provided in powder form at room temperature. 10 mM DMSO stocks of the test compounds were prepared, aliquoted and stored at −20° C. From the 10 mM DMSO stock of the compounds, a 3-fold serial dilution in DMSO was prepared to get a total of 10 dilutions of the test compounds. 0.5 μL of this dilution in DMSO was added to 250 μL of FBS-free basal media containing 3H-taurocholic acid and cold taurocholic acid to prepare the incubation mixture.

For `CCCCC1CN(c2ccccc2)c2cc(SC)c(OCC(C)(C)C(=O)O)cc2S(=O)(=O)N1C` (single isomer, unassigned) [2, enantiomer 2], in the series “Bioavailability studies”, the bioavailability (in general, the share of a dose that reaches the circulation, judged against a reference dose that is usually intravenous) amounted to 100%. For the same molecule, the IC50 (as a rule, the midpoint of a concentration-inhibition curve) at Human LBAT was 2.3 nM.

On to `CCCCC1CN(c2ccccc2)c2cc(SC)c(OCC3(C(=O)O)CC3)cc2S(=O)(=O)N1C` (single isomer, unassigned) [4, enantiomer 2], for which the bioavailability in “Bioavailability studies” turned out to be 17%. Further, the IC50 on Human LBAT was 7.4 nM.

Regarding `CCCCC1CN(c2ccccc2)c2cc(SCC)c(OCC(C)(C)C(=O)O)cc2S(=O)(=O)N1C` (single isomer, unassigned) [6, enantiomer 2], at Human LBAT, the IC50 was determined as 6.2 nM.

For the molecule `CCCCC1CN(c2ccccc2)c2cc(SCC)c(OCC3(C(=O)O)CC3)cc2S(=O)(=O)N1C` (single isomer, unassigned) [8, enantiomer 1], the bioavailability in the series “Bioavailability studies” came to 40%. Besides, the IC50 on Human LBAT turned out to be 5 nM.

Take `CCCCC1CN(c2ccccc2)c2cc(SC)c(OCC(C)(OC)C(=O)O)cc2S(=O)(=O)N1C` (single isomer, unassigned) [24, diastereomer 1]: the IC50 at Human LBAT is 8.4 nM.

On to `CCCCC1CN(c2ccccc2)c2cc(SC)c(OCC(C)(OC)C(=O)O)cc2S(=O)(=O)N1C` (single isomer, unassigned) [24, diastereomer 2], for which the half-maximal inhibitory concentration (IC50) at Human LBAT is 16 nM.

`CCCCC1CN(c2ccccc2)c2cc(SC)c(OCC(OC)C(=O)O)cc2S(=O)(=O)N1C` (single isomer, unassigned) [32, diastereomer 1]: the IC50 on Human LBAT was 22 nM.

Take `CCCCC1CN(c2ccccc2)c2cc(SC)c(OCC(C)(OC)C(=O)O)cc2S(=O)(=O)N1C` (single isomer, unassigned) [Example 23, 3-((3-Butyl-2-methyl-7-(methylthio)-1,1-dioxido-5-phenyl-2,3,4,5-tetrahydro-1,2,5-benzothiadiazepin-8-yl)oxy)-2-methoxy-2-methylpropanoic acid]: the IC50 on Human LBAT was 14 nM.

Consider `CCCCC1CN(c2ccccc2)c2cc(SC)c(OCC3(C(=O)O)CC3)cc2S(=O)(=O)N1C` (centres unmarked) [Example 3, 1-(((3-Butyl-2-methyl-7-(methylthio)-1,1-dioxido-5-phenyl-2,3,4,5-tetrahydro-1,2,5-benzothiadiazepin-8-yl)oxy)methyl)cyclopropane-1-carboxylic acid], for which the IC50 at Human LBAT turned out to be 13 nM.

`CCCCC1CN(c2ccccc2)c2cc(SCC)c(OCC(C)(C)C(=O)O)cc2S(=O)(=O)N1C` (centres unmarked) [Example 5, 3-((3-Butyl-7-(ethylthio)-2-methyl-1,1-dioxido-5-phenyl-2,3,4,5-tetrahydro-1,2,5-benzothiadiazepin-8-yl)oxy)-2,2-dimethylpropanoic acid]: on Human LBAT, the IC50 was 8.9 nM.

Turning to `CCCCC1CN(c2ccccc2)c2cc(SCC)c(OCC3(C(=O)O)CC3)cc2S(=O)(=O)N1C` (centres unmarked) [Example 7, 1-(((3-Butyl-7-(ethylthio)-2-methyl-1,1-dioxido-5-phenyl-2,3,4,5-tetrahydro-1,2,5-benzothiadiazepin-8-yl)oxy)methyl)cyclopropane-1-carboxylic acid], at Human LBAT, the IC50 amounted to 25 nM.

Turning to `CCCCC1CN(c2ccc(F)cc2)c2cc(SC)c(OCC(C)(C)C(=O)O)cc2S(=O)(=O)N1C` (centres unmarked) [Example 13, 3-((3-butyl-5-(4-fluorophenyl)-2-methyl-7-(methylthio)-1,1-dioxido-2,3,4,5-tetrahydro-1,2,5-benzothiadiazepin-8-yl)oxy)-2,2-dimethylpropanoic acid], the IC50 at Human LBAT stood at 3.3 nM.

Take `CCCCC1CN(c2ccccc2)c2cc(SC)c(OCC(C)(OC)C(=O)O)cc2S(=O)(=O)N1C` (centres unmarked) [Example 22, 3-((3-Butyl-2-methyl-7-(methylthio)-1,1-dioxido-5-phenyl-2,3,4,5-tetrahydro-1,2,5-benzothiadiazepin-8-yl)oxy)-2-methoxy-2-methylpropanoic acid]: the IC50 at Human LBAT turned out to be 28 nM.

As for `CCCCC1CN(c2ccc(F)cc2)c2cc(SCC)c(OCC(O)C(=O)O)cc2S(=O)(=O)N1C` (centres unmarked) [Example 33, 3-((3-butyl-7-(ethylthio)-5-(4-fluorophenyl)-2-methyl-1,1-dioxido-2,3,4,5-tetrahydro-1,2,5-benzothiadiazepin-8-yl)oxy)-2-hydroxypropanoic acid], the IC50 on Human LBAT came out at 6 nM.

The values are drawn from patent publication US12365658B2, “Benzothia(di)azepine compounds and their use as bile acid modulators” (Albireo AB, priority 2021, dated 2025).
